Data taken from patent publication US20260234116A1, “CYTOTOXIC EPOXYKETONE COMPOUNDS, PRECURSORS, COMPOSITIONS, AND METHODS OF USE” (Memorial Sloan-Kettering Cancer Center, priority 2023, published 2026).

Assays:
[1] = molecular target: EpnF (Streptomyces hygroscopicus, UniProt V5RMU9); experiment: Semiquantitative epoxide capture assay (EpnF-catalyzed epoxyketone formation); format: biochemical; conditions: 1 μM EpnF, 250 μM β-ketoacid substrate, 1 h; positive control 11n (FIG. 1)
Method: Recombinant EpnF was diluted to 1 μM in 180 μL EpnF Buffer in an 1.5 mL Eppendorf tube. The β-ketoacid 11 was added at various concentrations to a total reaction volume of 200 μL. The mixture was incubated in a heated shaker at 37° C. and 225 rpm for 1 h. The reaction mixture (30 μL×3 technical replicates) was transferred to a white, opaque 96-well plate (PerkinElmer, OptiPlate-96). Each plate also contained 30 μL×3 technical replicates of EpnF Buffer as a negative control. To each well, 15 μL of 125 mM nicotinamide in EpnF Buffer was added and mixed by pipetting. The plate was sealed with an adhesive foil cover (VWR Adhesive Foil for Microplates) and heated in an oven at 80° C. for 1 h. The plate was cooled to rt and 25 μL of 15% (v/v) acetophenone in EtOH and 25 μL of 1 M potassium hydroxide in EtOH were added to each well, then mixed by pipetting. The plate was cooled on ice for 10 min, then 125 μL formic acid was added to each well. The plate was resealed and heated in an oven at 100° C. for 5 min. The plate was cooled on ice for 5-10 min, then analyzed (λex 370 nm, λem 430 nm) on a fluorescence plate reader (Molecular Devices Spectramax M3).
We adapted a reported epoxide capture assay [Nelis, H. J. C. F.; Sinsheimer, J. E. (1981) A sensitive fluorimetric procedure for the determination of aliphatic epoxides under physiological conditions. Anal. Biochem. 115, 151-157.] to 96-well plate format to detect formation of the epoxyketone products semiquantitatively. Each β-ketoacid substrate 11 was incubated with recombinant, purified EpnF (1 h), then reacted with nicotinamide and acetophenone (1 h) to form a fluorescent 1,6-naphthyridinone 24. The fluorescent signals were normalized to that resulting from the known substrate β-ketoacid 11n as a positive control [Zabala, D.; Cartwright, J. W.; Roberts, D. M.; Law, B. J. C.; Song, L.; Samborskyy, M.; Leadlay, P. F.; Micklefield, J.; Challis, G. L. (2016) A flavin-dependent decarboxylase-dehydrogenase-monooxygenase assembles the warhead of α,β-epoxyketone proteasome inhibitors. J. Am. Chem. Soc. 138, 4342-4345.].

[2] = Stability of β-ketoacid substrates (decarboxylation, 1H-NMR or SPE-MS/MS); format: physicochemical
Method: To assess rates of decarboxylation under conditions relevant to storage, biochemical assays, and cellular assays, we investigated the stability of eponemycin-based β-ketoacids 11a and 11c under a variety of conditions as shown in below Table C.
For samples stored neat, β-ketoacid 11 (lyophilized powder) was aliquoted into 1.5-2 mg samples in glass vials and placed under Ar. Samples were stored on the bench top (20-25° C.), in at 4° C. refrigerator or in a −20° C. freezer. At each time point, an entire aliquot was dissolved in CD3OD (600 μL) analyzed by ^1H-NMR for decarboxylation to the corresponding isopropyl ketone byproduct 22. The degree of decarboxylation was determined by comparing integrations of two singlet peaks at 1.40 and 1.33 ppm, arising from the α,α-dimethyl groups in the β-ketoacid 11, to two doublet peaks at 1.09 and 1.06 ppm, arising from the isopropyl methyl groups in the decarboxylation product 22. A septuplet corresponding to the methine proton of the isopropyl group was also observed at 2.91 ppm.
For samples stored in PBS, aliquots of β-ketoacid 11 were dissolved in deuterated PBS (600 μL) and incubated in a 37° C. shaking incubator. At each time point, one aliquot was removed and analyzed by ^1H-NMR as above. NMR changes observed in deuterated PBS were similar to those observed in CD3OD above.
For samples stored in RPMI, β-ketoacid 11 (lyophilized powder) was dissolved in EtOH to a working stock concentration of 20 mM. The sample was diluted in RPMI to 100 μM (1000 μL) and incubated at 37° C. At each time point, an aliquot (50 μL) was removed from the master sample, transferred to a 96-well plate, quenched with 4 vol MeOH, centrifuged at 4,000 g to precipitate debris, and immediately analyzed by SPE-MS/MS to quantitate β-ketoacid 11 remaining.

[3] = tested on: U266 cells; experiment: In situ activation of β-ketoacid 11a by EpnF, cell viability, CellTitre-Glo, 48 h; format: cell-based; conditions: U266, 48 h
Method: For in situ activation of β-ketoacid 11a by EpnF, U266 cells were seeded in a 96-well plate as above, at 20,000 cells per well in […] RPMI. Recombinant EpnF (100 μM in EpnF Buffer) was diluted in RPMI to 5 μM concentration (300 μL final volume), then 10 μL of this enzyme solution was added to the plate wells to 0.5 μM EpnF final concentration. Stock solutions (20 mM) of β-ketoacid 11a and epoxyketone 12a in EtOH or DMSO, respectively, were diluted to 5% EtOH or DMSO in RPMI to provide working stocks at 1 mM. The working stocks were log-diluted to 1 mM-0.05 μM using RPMI containing 5% EtOH or 5% DMSO, respectively. Aliquots of compounds (10 μL) were added to the sample wells for final concentrations of 100-0.005 μM. Separate negative control wells were treated with 10 μL of 5% EtOH or 5% DMSO in RPMI (0.5% final concentration). The cells were incubated for 48 hr, then cell viability was measured with the CellTitre-Glo assay. Results of compound-treated wells were normalized to negative control wells.

EpnF, sequence (V5RMU9 entry or part of it): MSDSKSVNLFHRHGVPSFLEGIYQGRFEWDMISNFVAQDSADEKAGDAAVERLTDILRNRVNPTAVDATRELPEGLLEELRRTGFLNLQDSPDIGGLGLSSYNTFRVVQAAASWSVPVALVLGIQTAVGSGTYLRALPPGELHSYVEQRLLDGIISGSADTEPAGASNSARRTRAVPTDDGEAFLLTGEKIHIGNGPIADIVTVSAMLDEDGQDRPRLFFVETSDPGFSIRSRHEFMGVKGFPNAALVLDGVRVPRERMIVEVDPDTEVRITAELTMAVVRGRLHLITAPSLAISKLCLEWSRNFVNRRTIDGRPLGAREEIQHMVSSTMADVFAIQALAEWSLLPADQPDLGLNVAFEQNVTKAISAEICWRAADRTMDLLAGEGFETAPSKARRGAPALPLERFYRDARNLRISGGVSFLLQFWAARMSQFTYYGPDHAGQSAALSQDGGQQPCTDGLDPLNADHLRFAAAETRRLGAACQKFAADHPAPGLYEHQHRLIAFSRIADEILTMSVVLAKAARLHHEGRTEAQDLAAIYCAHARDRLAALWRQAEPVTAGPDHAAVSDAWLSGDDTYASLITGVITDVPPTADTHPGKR

## CC(C)CCCCC(=O)N[C@@H](CO)C(=O)N[C@@H](CC(C)C)C(=O)C(C)(C)C(=O)O [Compound 11a, (4S)-4-[(2S)-3-Hydroxy-2-(6-methylheptanamido)propanamido]-2,2,6-trimethyl-3-oxoheptanoic acid]
[1]
  EpnF-catalyzed formation of epoxyketone (epoxide capture): levels comparable to that of the positive control
[2]; RPMI medium, RPMI, 37° C.
  half-life at 100 μM: 2.5 h
[2]; deuterated PBS, PBS, 37° C.
  half-life: 4.5 h
[2]; neat at low temperatures, buffer or media at 37° C.
  stability / rate of decarboxylation (in words): fairly stable when stored neat at low temperatures
[2]; neat lyophilized powder, neat, 4° C.
  half-life: > 336 h
[2]; neat lyophilized powder, neat, 25° C.
  half-life: 120 h
[2]; neat lyophilized powder, neat, −20° C.
  half-life: > 336 h
[2]; neat, 4° C.
  % remaining at last time point: d (80%)
[2]; neat, −20° C.
  % remaining at last time point: d (95%)
[3]; in presence of EpnF (0.5 μM)
  cytotoxicity of β-ketoacid activated in situ: cytotoxicity comparable to that of the corresponding isolated epoxyketone 12a
[3]; prodrug alone, absence of EpnF
  no cytotoxicity at up to (concentration): > 100 µM
